The values below come from ChEMBL document CHEMBL1201862, “PubChem BioAssay data set” (2004).

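Results reflect a 48-hour exposure of cells in 96-well plates to compound at five concentrations. Abbreviation: GI50, concentration required for 50% inhibition of growth.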 The source made the active and inactive calls. Rule as the data show it: active = GI50 up to about 1.1 µM and inactive = higher. Some results are limits rather than exact numbers.

What all share (assay): NCI anticancer screen, dose series, 48 h
The test system of test [1] is CAKI-1.
In test [2] the test system is COLO 205.
In test [3] the test system is HCT-15.
The subject of test [4] is K562.
For test [5], the system named is LOX IMVI.
Test [6] relates to LXFL 529.
For test [7], the system named is Malme-3M.
For test [8], the system named is NCI-H226.
The subject of test [9] is NCI-H460.
In test [10] the test system is OVCAR-8.
Test [11] concerns RXF 393.
The subject of test [12] is SK-MEL-28.
Test [13] concerns SK-MEL-2.
The subject of test [14] is SN12C.
Test [15] has as its system SNB-78.
For test [16], the system named is TK-10.
The test system of test [17] is UACC-257.
The test system of test [18] is UO-31.
The subject of test [19] is Hs-578T.
The test system of test [20] is MDA-N.

Turning to `CSc1nc2nc(C(O)C(O)C(O)CO)cnc2c(=O)[nH]1` (stereo not drawn), the GI50 is > 100 µM (inactive) in test [1]; > 100 µM (inactive) in test [2]; above 100 µM in test [3]; > 10 µM (inactive) in test [4]; > 100 µM (inactive) in [5]; > 100 µM (inactive) in [6]. The GI50 in test [7], in test [8], in test [9], in test [10], in test [11] and in [12] was > 100 µM (inactive) throughout. Also, the GI50 in test [13], in [14], in test [15], in test [16], in test [17] and in test [18] was > 100 µM (inactive) in each case.

For `C=C(C)[C@@H]1CC=C(CO)CC1` [PERILLYL ALCOHOL], the GI50 is > 10 µM (inactive) in [1]; 199 µM (inactive) in test [2]; 167 µM in test [3]; > 10 µM (inactive) in test [19]; 30.5 µM (inactive) in [4]; 195 µM (inactive) in [5]. Also, the GI50 in [6] is 668 µM (inactive); in test [20] it was > 10 µM (inactive); in test [7], 324 µM (inactive); in test [8], 251 µM (inactive); in test [9], 454 µM (inactive); in test [10] it was 145 µM (inactive). Moreover, the GI50 in test [11] was 93.8 µM (inactive); in [12] it was 201 µM (inactive); in [13], 122 µM (inactive); in test [14] it was 555 µM (inactive); in test [15], 200 µM (inactive); in test [16], 324 µM (inactive). Besides, the GI50 was 533 µM (inactive) in [17] and 410 µM (inactive) in test [18].
